Reference: patent US4874526A, “Treatment of water” (Ciba-Geigy Corporation, priority 1981, dated 1989)
Like-named read-outs stand apart in the source and are kept apart here. Each block holds one compound with its values, some of them ahead of it.

Legend:
Scenedesmus spec. = assay: Algal growth inhibition (MIC), strain d (Example 5); assay type: cell-based
Experimental: (§1) Cultures of the following strains of algae were grown in algae nutrient medium over a period of 14 days:
(§2) The algae was diluted (1 to 200) in further algae medium and the phosphonium compounds added to give final concentrations of 1, 2.5, 3.4 and 6.8 ppm active ingredient. The algal suspensions were then incubated in a shaking water bath at 18° C., with a daily cycle of 14 hours light and 10 hours darkness. The suspensions were assessed visually for growth of algae and the Minimum Inhibition Concentration (MIC) was recorded as the lowest concentration of product at which there was no growth for each algal strain. A similar experiment was also carried out using a mixed algal culture including strains a to d together with the following strains: […]

Haematococcus lacustris = assay: Algal growth inhibition (MIC), strain C (Example 7); assay type: cell-based
Experimental: (§3) The algae was diluted (1 to 200) in further algae medium and the phosphonium compounds added to give final concentrations of 1, 2.5, 3.4 and 6.8 ppm active ingredient. The algal suspensions were then incubated in a shaking water bath at 18° C., with a daily cycle of 14 hours light and 10 hours darkness. The suspensions were assessed visually for growth of algae and the Minimum Inhibition Concentration (MIC) was recorded as the lowest concentration of product at which there was no growth for each algal strain. A similar experiment was also carried out using a mixed algal culture including strains a to d together with the following strains:
The activity of the phosphonium compounds listed below against three strains of algae is determined according to the procedure set out in example 5. The three strains of algae are:
Haematococcus lacustris (C)

Chlorella vulgaris = assay: Algal growth inhibition (MIC), strain c (Example 5); assay type: cell-based
Experimental: as §1, §2

Phormidium foveolarum = assay: Algal growth inhibition (MIC), strain b (Example 5); assay type: cell-based; conditions: Nodosilinea foveolarum
Experimental: as §1
(b) Phormidium foveolarum
as §2

Oscillatoria geminata = assay: Algal growth inhibition (MIC), strain a (Example 5); assay type: cell-based; conditions: Jaaginema geminatum
Experimental: as §1
(a) Oscillatoria geminata
as §2

Scenedesmus obliquus = assay: Algal growth inhibition (MIC), strain A (Example 7); assay type: cell-based; conditions: Tetradesmus obliquus
Experimental: as §3
(§4) The activity of the phosphonium compounds listed below against three strains of algae is determined according to the procedure set out in example 5.

Tribonema aequale = assay: Algal growth inhibition (MIC), strain B (Example 7); assay type: cell-based
Experimental: as §3, §4

mixed algal culture = assay: Algal growth inhibition (MIC), mixed algal culture (Example 5); assay type: cell-based
Experimental: as §3
In this experiment the concentrations of phosphonium compounds present were 2, 5, 7.5 and 10 ppm.

[1] = Standard Ross-Miles foam test; assay type: physicochemical; conditions: 0.05%; for foam production: compared with S or 22
[2] = Surface tension of dilute aqueous solutions (Example 2); assay type: physicochemical; conditions: FIG. 8, in comparison with 22
Experimental: The surface activity of the following compounds was measured by determining the surface tension of dilute aqueous solutions of the chemicals: […]

[3] = tested on: mixed culture of bacteria; assay: Minimum concentration required to kill a given number of organisms (MKC), mixed culture of slime-forming bacteria, 5 hours exposure; assay type: cell-based
Experimental: The effect of the number of organisms present on the biological activity of tri-n-butyl tetradecyl phosphonium chloride was compared with that for various quaternary ammonium compounds. This was done by measuring the MKC value i.e. the minimum concentration (expressed in ppm active ingredient) of chemical required to kill a given number or organisms. In the test carried out, a suspension of a mixed culture of bacteria containing the following slime-forming organisms:
Proteus vulgaris was diluted to give suspensions containing 10^6 /ml (A), 10^5 /ml (B) and 10^4 /ml (C) bacteria. These suspensions were then exposed to varying concentrations of the biocides for 5 hours and the MKC value measured.

algae = assay: Anti-algal effect, algae in general; assay type: cell-based; conditions: compared with triphenyl-dodecyl phosphonium chloride
From the text: The anti-algal effect of the respective test compounds was also examined. […] Thus, the compound of the invention when used in an amount of 1 ppm inhibited the algal strains chlorella vulgaris snd scenedesmus spec. (which strains are very significant strains in cooling systems) where 2, 5 or 10 ppm was required when using triphenyl-dodecyl phosphonium chloride.

germs = assay: Survival rate of germs in circulation systems with cooling tower; conditions: 3 h, 20 ppm active ingredient, read-out: Survival rate of germs 3h after biocide addition
Experimental: The compounds below were tested in circulation systems, set up on a roof, and consisting of the following:
1. A plastic barrel having a volume of 113 liters.
2. A Siemens pump (21 liters/minute delivery at a delivery hight of 3 meters).
3. A cooling tower with Oreogn pine heartwood, oak, spruce, asbestos cement and PVC panels.
120-124 liters of make-up water were added daily to achieve a half-life in the system of about one day.
The systems were inoculated naturally with airborne dust, spores and pollen.
The systems were treated with compound to be tested on the first day then on day 7, day 21 and over 45 days. The number of germs/ml of water in the system is measured before and 3 hours after addition of the compound being tested.
The germ count was carried out by standard serial dilution and plating out on Agar nutrient and, afer incubation, counting the bacterial colonies present on the surface.
In each case the dosage of compound added was 20 ppm active ingredient.

[4] = Reduction of the surface tension of water (Example 6); assay type: physicochemical; conditions: distilled water 72.8 dynes/cm
Experimental: The effect of respective test compounds on the surface tension of water was also determined, the results being shown in the following Table:
Reduction of the surface tension.

[5] = Foaming in the cooling system (Example 6); assay type: physicochemical
[6] = read-out: MKC, A: 10^6/ml bacteria, ppm active ingredient
[7] = read-out: MKC, B: 10^5/ml bacteria, ppm active ingredient
[8] = read-out: MKC, C: 10^4/ml bacteria, ppm active ingredient

Compound: CCCCCCCCCCCCCC[P+](CCCC)(CCCC)CCCC.[Br-] [tri-n-butyl tetradecyl phosphonium bromide]
MIC (Scenedesmus spec.; strain d, 18° C., ppm active ingredient, read-out: MIC): 1 mg/L | MIC (Haematococcus lacustris; strain C, read-out: MIC): 2 mg/L | MIC (Chlorella vulgaris; strain c, 18° C., ppm active ingredient, read-out: MIC): 1 mg/L | MIC (Phormidium foveolarum; strain b, 18° C., ppm active ingredient, read-out: MIC): 1 mg/L | MIC (Oscillatoria geminata; strain a, 18° C., ppm active ingredient, read-out: MIC): 2.5 mg/L | MIC (Scenedesmus obliquus; strain A, read-out: MIC): 2 mg/L | MIC (Tribonema aequale; strain B, read-out: MIC): 0.3 mg/L | MIC (mixed algal culture; mixed culture, concentrations 2, 5, 7.5 and 10 ppm, read-out: MIC): 2 mg/L

Compound: CCCCCCCCCCCCCC[P+](CCCC)(CCCC)CCCC.[Cl-] [tri-n-butyl tetradecyl phosphonium chloride]
Foam Height ([1]; 1 minute): 33 mm | Foam Height ([1]; 30 minutes): 19 mm | Foam Height ([1]; 60 minutes): 10 mm | foam production [1]: much less foam than S or 22 | surface activity [2]: high surface activity | MBC [3, 6]: 12.5 mg/L | MBC [3, 7]: 12.5 mg/L | MBC [3, 8]: 12.5 mg/L | activity against algae (algae): more active against algae than triphenyl-dodecyl phosphonium chloride | viability at 20 ppm (germs; 0 d): 1% | viability at 20 ppm (germs; 7 d): 9% | viability at 20 ppm (germs; 21 d): 6% | viability at 20 ppm (germs; >45 d): 8% | MIC (Tribonema aequale): 2 mg/L | Surface tension ([4]; 5 mg/l): 52.9 dynes/cm | Surface tension ([4]; 10 mg/l): 48.8 dynes/cm | Surface tension ([4]; 15 mg/l): 47.1 dynes/cm | Surface tension ([4]; 20 mg/l): 45.6 dynes/cm | Surface tension ([4]; 30 mg/l): 42.3 dynes/cm | MIC (mixed algal culture): 5 mg/L

Compound: CCCCCCCCCC[N+](C)(C)CCCCCCCCCC.[Cl-] [Dimethyl di-n-decyl ammonium chloride, dimethyl di-n-decyl ammonium chloride, reference compound]
Foam Height ([1]; 1 minute): 45 mm | Foam Height ([1]; 30 minutes): 40 mm | Foam Height ([1]; 60 minutes): 38 mm | MBC [3, 6]: 25 mg/L | MBC [3, 7]: 25 mg/L | MBC [3, 8]: 12.5 mg/L

Foam Height ([1]; 1 minute): 18 mm | Foam Height ([1]; 30 minutes): 6 mm | Foam Height ([1]; 60 minutes): 4 mm | foam production [1]: much less foam than S or 22 | surface activity [2]: high surface activity
Compound: CCCCCCCCCCCC[P+](CCCC)(CCCC)CCCC.[Cl-] [Tri-n-butyl dodecyl phosphonium chloride, tri-n-butyl dodecyl phosphonium chloride]
MIC (Haematococcus lacustris; strain C, read-out: MIC): 1 mg/L | MIC (Scenedesmus obliquus; strain A, read-out: MIC): 2 mg/L | MIC (Tribonema aequale; strain B, read-out: MIC): 1 mg/L

Compound: CCCCCCCCCCCC[P+](c1ccccc1)(c1ccccc1)c1ccccc1.[Cl-] [Triphenyl dodecyl phosphonium chloride, triphenyl dodecyl phosphonium chloride, reference compound]
MIC (Scenedesmus spec.): 3.4 mg/L | MIC (Haematococcus lacustris): 3 mg/L | MIC (Chlorella vulgaris): 2.5 mg/L | foaming in the cooling system [5]: some foaming problems were encountered | MIC (Phormidium foveolarum): 1 mg/L | MIC (Oscillatoria geminata): 2.5 mg/L | MIC (Scenedesmus obliquus): 3 mg/L | viability at 20 ppm (germs; 0 d): 3% | viability at 20 ppm (germs; 7 d): 72% | viability at 20 ppm (germs; 21 d): 110% | viability at 20 ppm (germs; >45 d): 130% | MIC (Tribonema aequale): 3 mg/L | Surface tension ([4]; 5 mg/l): 60.2 dynes/cm | Surface tension ([4]; 10 mg/l): 59.5 dynes/cm | Surface tension ([4]; 15 mg/l): 57.9 dynes/cm | Surface tension ([4]; 20 mg/l): 56.4 dynes/cm | Surface tension ([4]; 30 mg/l): 53.7 dynes/cm | MIC (mixed algal culture): 7.5 mg/L

Compound: CCCCCCCCCCCCCC[P+](c1ccccc1)(c1ccccc1)c1ccccc1.[Br-] [Triphenyl tetradecyl phosphonium bromide, reference compound]
MIC (Haematococcus lacustris; strain C, read-out: MIC): 6 mg/L | MIC (Scenedesmus obliquus; strain A, read-out: MIC): 6 mg/L | MIC (Tribonema aequale; strain B, read-out: MIC): 3 mg/L
